Measured values as given in patent US20230012368A1 (Hoffmann-La Roche Inc., priority 2018, published 2023).
Structures can show the parent of a compound that is named as a salt.

Test system: Acinetobacter baumannii ATCC 17978
Experiment: Antimicrobial susceptibility testing: 90% growth inhibitory concentration (IC90) determination
Assay type: cell-based
Details: 90% growth inhibitory concentration; Acinetobacter baumannii ATCC17978; Iso-Sensitest broth, OD 600 nm over 16h; read-out: ATCC17978 IC90
Method in brief: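 Growth of the Acinetobacter baumannii strain was followed by optical density at 600 nm every 20 minutes for 16h at 35±2° C. Inoculum was ~5×10^(5) CFU/ml in Iso-Sensitest medium, with twofold compound dilutions (e.g. 50 to 0.097 μM final). The 90% inhibitory concentration was derived in log-phase growth.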

| Structure (SMILES) | IC90 [nM] |
| --- | --- |
| CCc1cc(Nc2nccn3c(-c4ccc(OC(F)F)c(F)c4F)cnc23)ccc1C(=O)NC(CCN)C(F)F (stereo not drawn) [Example 315, N-(4-amino-1,1-difluorobutan-2-yl)-4-[[3-[4-(difluoromethoxy)-2,3-difluorophenyl]imidazo[1,2-a]pyrazin-8-yl]amino]-2-ethylbenzamide; hydrochloride] | 1300 |

Same assay, conditions: Acinetobacter baumannii, ATCC17978, 16 h, 90% growth inhibitory concentration; Acinetobacter baumannii ATCC17978; Iso-Sensitest broth, OD 600 nm over 16h; read-out: ATCC17978 IC90

| Structure (SMILES) | IC90 [nM] |
| --- | --- |
| COc1ccc(-c2cnc3c(Nc4ccc(C(=O)NC[C@@H](N)CNC(=O)[C@@H]5C[C@@H](O)CN5)c(C)c4)nccn23)c(F)c1F [Example 468, (2S,4R)-N-[(2R)-2-amino-3-[[4-[[3-(2,3-difluoro-4-methoxy-phenyl)imidazo[1,2-a]pyrazin-8-yl]amino]-2-methyl-benzoyl]amino]propyl]-4-hydroxy-pyrrolidine-2-carboxamide; formic acid] | 480 |
| COc1ccc(-c2cnc3c(Nc4ccc(C(=O)N(C)CCC5CCNCC5)c(C)c4)nccn23)c(F)c1F [Example 63, 4-((3-(2,3-difluoro-4-methoxyphenyl)imidazo [1,2-a]pyrazin-8-yl)amino)-N,2-dimethyl-N-(2-(piperidin-4-yl)ethyl)benzamide] | 90 |
| COc1ccc(-c2cnc3c(Nc4ccc(C(=O)NCCNC(=O)[C@@H]5C[C@](C)(O)CN5)c(C)c4)nccn23)c(F)c1F [Example 372, (2S,4S)-N-[2-[[4-[[3-(2,3-difluoro-4-methoxyphenyl)imidazo[1,2-a]pyrazin-8-yl]amino]-2-methylbenzoyl]amino]ethyl]-4-hydroxy-4-methylpyrrolidine-2-carboxamide] | 150 |
| COc1ccc(-c2cnc3c(Nc4ccc(C(=O)NCC5CNCCN5)c(C)c4)nccn23)cc1F (stereo not drawn) [Example 246, 4-[[3-(3-fluoro-4-methoxyphenyl)imidazo[1,2-a]pyrazin-8-yl]amino]-2-methyl-N-(piperazin-2-ylmethyl)benzamide;hydrochlo-ride] | 2200 |
| COc1ccc(-c2cnc3c(Nc4ccc(C(=O)NCCN5CCNCC5)cc4)nccn23)cc1Cl [Example 30, 4-((3-(3-chloro-4-methoxyphenyl)imidazo [1,2-a]pyrazin-8-yl)amino)-N-(2-(piperazin-1-yl)ethyl)benzamide hydrochloride] | 3700 |
| CCc1cc(Nc2nccn3c(-c4ccc(OC(F)F)c(F)c4F)cnc23)ccc1C(=O)NCCC(=O)NCCN(C)C [Example 325, 4-[[3-[4-(difluoromethoxy)-2,3-difluorophenyl]imidazo[1,2-a]pyrazin-8-yl]amino]-N-[3-[2-(dimethylamino)ethylamino]-3-oxopropyl]-2-ethylbenzamide] | 150 |
| CCc1cc(Nc2nccn3c(-c4ccc(Oc5ccncn5)c(F)c4F)cnc23)ccc1C(=O)NCCNC(=O)[C@H](N)CCNC(=N)N [Example 441, N-[2-[[(2R)-2-amino-4-guanidino-butanoyl]amino]ethyl]-4-[[3-(2,3-difluoro-4-pyrimidin-4-yloxy-phenyl)imidazo[1,2-a]pyrazin-8-yl]amino]-2-ethyl-benzamide; formic acid] | 460 |
| CCc1cc(Nc2nccn3c(-c4ccc(OC)c(F)c4F)cnc23)ccc1C(=O)NCCCCCC(=O)N1CCN[C@H](CO)C1 [Example 162, 4-[[3-(2,3-difluoro-4-methoxy-phenyl)imidazo[1,2-a]pyrazin-8-yl]amino]-2-ethyl-N-[6-[(3S)-3-(hydroxymethyl)piperazin-1-yl]-6-oxo-hexyl]benzamide] | 80 |
| CCc1cc(Nc2nccn3c(-c4ccc(Oc5ccncn5)c(F)c4F)cnc23)ccc1C(=O)NCCNC(=O)[C@@H](N)CCNC(=N)N [Example 440, N-[2-[[(2S)-2-amino-4-guanidino-butanoyl]amino]ethyl]-4-[[3-(2,3-difluoro-4-pyrimidin-4-yloxy-phenyl)imidazo[1,2-a]pyrazin-8-yl]amino]-2-ethyl-benzamide; formic acid] | 520 |
| COc1ccc(-c2cnc3c(Nc4ccc(C(=O)N(C)CCN5CCCCC5)c(Cl)c4)nccn23)cc1F [Example 237, 2-chloro-4-[[3-(3-fluoro-4-methoxyphenyl)imidazo[1,2-a]pyrazin-8-yl]amino]-N-methyl-N-(2-piperidin-1-ylethyl)benzamide] | 1500 |
| COc1ccc(-c2cnc3c(Nc4ccc(C(=O)NCCCN5CCN(C)C(=O)C5)c(C)c4)nccn23)c(F)c1F [Example 66, 4-((3-(2,3-difluoro-4-methoxyphenyl)imidazo [1,2-a]pyrazin-8-yl)amino)-2-methyl-N-(3-(4-methyl-3-oxopiperazin-1-yl)propyl)benzamide] | 310 |
| COc1ccc(-c2cnc3c(Nc4ccc(C(=O)NCC5(O)CCNC5)c(C)c4)nccn23)cc1F (stereo not drawn) [Example 286, 4-[[3-(3-fluoro-4-methoxyphenyl)imidazo[1,2-a]pyrazin-8-yl]amino]-N-[(3-hydroxypyrrolidin-3-yl)methyl]-2-methylbenzamide;2,2,2-trifluoroacetic acid] | 2700 |
| CNC(=O)c1ccc(Nc2nccn3c(-c4ccc(OC(F)F)cc4)cnc23)cc1[N+](=O)[O-] [Example 54, 4-((3-(4-(difluoromethoxy)phenyl)imidazo[1,2-a]pyrazin-8-yl)amino)-N-methyl-2-nitrobenzamide] | 820 |
| CCc1cc(Nc2nccn3c(-c4ccc(OC(F)F)c(F)c4F)cnc23)ccc1C(=O)NC(C)(C)CCN [Example 100, N-(4-amino-2-methylbutan-2-yl)-4-((3-(4-(difluoromethoxy)-2,3-difluorophenyl)imidazo [1,2-a]pyrazin-8-yl)amino)-2-ethylbenzamide hydrochloride] | 350 |
| Cc1cc(Nc2nccn3c(-c4ccc(Cl)c(F)c4F)cnc23)ccc1C(=O)NCCC1CCNCC1 [Example 193, 4-[[3-(4-chloro-2,3-difluorophenyl)imidazo[1,2-a]pyrazin-8-yl]amino]-2-methyl-N-(2-piperidin-4-ylethyl)benzamide;hydrochlo-ride] | 350 |
| N#CCOc1ccc(-c2cnc3c(Nc4ccc(C(=O)NCc5cc[nH]c(=O)c5)c(Cl)c4)nccn23)c(F)c1F [Example 85, 2-chloro-4-[[3-[4-(cyanomethoxy)-2,3-difluoro-phenyl]imidazo[1,2-a]pyrazin-8-yl]amino]-N-[(2-oxo-1H-pyridin-4-yl)methyl]benzamide] | 70 |

Now from value to compound:

| IC90 [nM] | Structure (SMILES) |
| --- | --- |
| 24 | CCc1cc(Nc2nccn3c(-c4ccc(OC)c(F)c4F)cnc23)ccc1C(=O)NC/C=C/CN [Example 536, N-[(E)-4-aminobut-2-enyl]-4-[[3-(2,3-difluoro-4-methoxyphenyl)imidazo[1,2-a]pyrazin-8-yl]amino]-2-ethylbenzamide] |
| 650 | CCc1cc(Nc2nccn3c(-c4ccc(OC)c(F)c4F)cnc23)ccc1C(=O)N[C@@H](C)C(=O)NCCNC [Example 567, 4-[[3-(2,3-difluoro-4-methoxy-phenyl)imidazo[1,2-a]pyrazin-8-yl]amino]-2-ethyl-N-[(1S)-1-methyl-2-[2-(methylamino)ethylamino]-2-oxo-ethyl]benzamide] |
| 350 | CCc1cc(Nc2nccn3c(-c4ccc(OC)c(F)c4F)cnc23)ccc1C(=O)NCC(O)CN (stereo not drawn) [Example 334, N-(3-amino-2-hydroxypropyl)-4-[[3-(2,3-difluoro-4-methoxyphenyl)imidazo[1,2-a]pyrazin-8-yl]amino]-2-ethylbenzamide] |
| 520 | CCc1cc(Nc2nccn3c(-c4ccc(OC)c(F)c4F)cnc23)ccc1C(=O)NCC(O)CNC(=O)[C@@H](N)CN (mixture of isomers) [Example 415, N-[3-[[(2S)-2,3-diaminopropanoyl]amino]-2-hydroxypropyl]-4-[[3-(2,3-difluoro-4-methoxyphenyl)imidazo[1,2-a]pyrazin-8-yl]amino]-2-ethylbenzamide;dihydrochlo-ride] |
| 310 | COc1ccc(-c2cnc3c(Nc4ccc(C(=O)N[C@@H](C)CNC(=N)C(C)C)c(Cl)c4)nccn23)c(F)c1F [Example 500, 2-chloro-4-[[3-(2,3-difluoro-4-methoxyphenyl)imidazo[1,2-a]pyrazin-8-yl]amino]-#N!- [(2#S!)-1-(2-methylpropanimidoylamino)propan-2-yl]benzamide] |
| 450 | CCc1cc(Nc2nccn3c(-c4ccc(OC)c(F)c4F)cnc23)ccc1C(=O)N[C@@H](C)CNC(=N)C(C)C [Example 503, 4-[[3-(2,3-difluoro-4-methoxyphenyl)imidazo[1,2-a]pyrazin-8-yl]amino]-2-ethyl-#N!-[(2#S!)-1-(2-methylpropanimidoylamino)propan-2-yl]benzamide] |
| 90 | CCc1cc(Nc2nccn3c(-c4ccc(OC)c(F)c4F)cnc23)ccc1C(=O)NCCNC(=O)[C@@H](N)CCNC(=N)N [Example 131, N-[2-[[(2S)-2-amino-4-guanidino-butanoyl]amino]ethyl]-4-[[3-(2,3-difluoro-4-methoxy-phenyl)imidazo[1,2-a]pyrazin-8-yl]amino]-2-ethyl-benzamide formate] |
| 600 | CCc1cc(Nc2nccn3c(-c4ccc(OC)c(F)c4F)cnc23)ccc1C(=O)NCC(C)(C)N [Example 524, N-(2-amino-2-methylpropyl)-4-((3-(2,3-difluoro-4-methoxyphenyl)imidazo[1,2-a]pyrazin-8-yl)amino)-2-ethylbenzamide hydrochloride] |
| 140 | COc1ccc(-c2cnc3c(Nc4ccc(C(=O)N[C@H](C)CNC(=N)C(C)C)c(C)c4)nccn23)c(F)c1F [Example 498, 4-[[3-(2,3-difluoro-4-methoxyphenyl)imidazo[1,2-a]pyrazin-8-yl]amino]-2-methyl-#N!-[(2#R!)-1-(2-methylpropanimidoylamino)propan-2-yl]benzamide] |
| 130 | COc1ccc(-c2cnc3c(Nc4ccc(C(=O)N[C@H](C)CN)c(C)c4)nccn23)c(F)c1F [Example 506, #N!-[(2#R!)-1-aminopropan-2-yl]-4-[[3-(2,3-difluoro-4-methoxyphenyl)imidazo[1,2-a]pyrazin-8-yl]amino]-2-methylbenzamide;dihydrochlo-ride] |
